# Measured values reported in patent publication US20020137929A1, “1 - (3-heterocyclylphenyl) isothiourea, -isourea, -guanidine and -amidine herbicidal agents” (Intellectual Property Department, BASF Aktiengesellschaft, priority 1998, published 2002).
# What was measured:
# CASOB (Sicklepod) = assay: Preemergence herbicidal evaluation; type: in vivo, Cassia obtusifolia; details: rated 4-5 weeks after treatment
# In short: (§1)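 Test compound, dissolved in aqueous acetone, was sprayed over planted soil cups at an equivalent of about 0.0156 to 0.500 kg/ha; seeds had been mixed with potting soil. Greenhouse growth followed, with visual 0-9 scoring of injury at four to five weeks.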
# ZEAMX (Corn, Field) [1] = assay: Preemergence herbicidal evaluation; type: in vivo, Zea mays; details: rated 4-5 weeks after treatment
# In short: as §1
# ZEAMX (Corn, Field) [2] = assay: Postemergence herbicidal evaluation; type: in vivo, Zea mays; details: postemergence
# In short: (§2)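 Visual 0-9 injury score (stand, vigor, malformation, size, chlorosis, appearance vs untreated) taken four to five weeks post-spray, averaged across repeat tests. Test plants about two weeks old; foliar spray of acetone/water (1:1) with 0.5% surfactant delivering ~0.0156-0.500 kg active/ha.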
# [3] = tested on: CHEAL (Lambsquarters, Common); assay: Preemergence herbicidal evaluation; type: in vivo, Chenopodium album; details: rated 4-5 weeks after treatment
# In short: as §1
# ECHCG (Barnyardgrass) [4] = assay: Preemergence herbicidal evaluation; type: in vivo, Echinochloa crus-galli; details: rated 4-5 weeks after treatment
# In short: as §1
# ECHCG (Barnyardgrass) [5] = assay: Postemergence herbicidal evaluation; type: in vivo, Echinochloa crus-galli; details: postemergence
# In short: as §2
# CYPIR (Rice Flatsedge) = assay: Postemergence weed control under flooded paddy conditions; type: in vivo, Cyperus iria; details: postemergence weeds, 3-4 weeks after treatment
# In short: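 Flood-water application, about 0.0313–0.500 kg/ha a.i. in aqueous/acetone 50/50 v/v; water depth 1.5–3 cm throughout. Weeds 3–5 cm, rice 1.5–2.5 leaf. Greenhouse; 0–9 visual rating vs control at 3–4 wk.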
# [6] = tested on: TRZAWR (Wheat, Winter, cv Riband); assay: Preemergence herbicidal evaluation; type: in vivo, Triticum aestivum; details: rated 4-5 weeks after treatment
# In short: as §1
# [7] = tested on: GLXMAW (Soybean, Williams); assay: Preemergence herbicidal evaluation; type: in vivo, Glycine max, (L.) Merr. cv Williams; details: rated 4-5 weeks after treatment
# In short: as §1
# ABUTH (Velvetleaf) [8] = assay: Postemergence herbicidal evaluation; type: in vivo, Abutilon theophrasti; details: postemergence
# In short: as §2
# ABUTH (Velvetleaf) [9] = assay: Preemergence herbicidal evaluation; type: in vivo, Abutilon theophrasti; details: rated 4-5 weeks after treatment
# In short: as §1
# [10] = tested on: CHEAL (Lambsquarters, Common); assay: Postemergence herbicidal evaluation; type: in vivo, Chenopodium album; details: postemergence
# In short: as §2
# CYPSE (Flatsedge) = assay: Postemergence weed control under flooded paddy conditions; type: in vivo, Cyperus serotinus; details: postemergence weeds, 3-4 weeks after treatment
# From the text: Results of herbicide evaluation are expressed on a rating scale (0-9). The scale is based upon a visual observation of plant stand, vigor, malformation, size, chlorosis and overall plant appearance as compared with a control.
# Plastic containers containing weeds which are 3 to 5 cm tall and rice seedlings at the 1.5 to 2.5 leaf stage are flooded with water. The water is maintained at 1.5 to 3 cm above the soil surface for the duration of the experiment. Test compounds are applied as aqueous/ acetone mixtures 50/50 v/v directly into the flood water to provide the equivalent of about 0.0313 to 0.500 kg/ha of active ingredient. The treated containers are placed on greenhouse benches and cared for in accordance with conventional greenhouse procedures. Three to four weeks after treatment, the test is terminated and each container is examined and herbicidal effect rated according to the rating system provided in Example 37. The compounds evaluated are reported by compound number given in Example 37.
# SETVI (Foxtail, Green) = assay: Postemergence herbicidal evaluation; type: in vivo, Setaria viridis; details: postemergence
# In short: as §2
# ORYSAT (Rice, Tebonnet) = assay: Postemergence herbicidal evaluation; type: in vivo, Oryza sativa, (L.) Tebonnet; details: postemergence
# In short: as §2
structure (smiles),measurement,setting,value
"C=CCN1C(=O)CSC1=Nc1cc(N2C(=O)C3=C(CCCC3)C2=O)c(F)cc1Cl [Compound 2, N-{5-[(3-allyl-4-oxo-2-thiazolidinylidene)amino]-4-chloro-2-fluorophenyl}-1-cyclohexene-1,2-dicarboximide]",CASOB preemergence herbicidal rating,CASOB (Sicklepod); rate 0.0313 kg/ha,2.0
same,CASOB preemergence herbicidal rating,CASOB (Sicklepod); rate 0.0625 kg/ha,2.0
same,CASOB preemergence herbicidal rating,CASOB (Sicklepod); rate 0.5000 kg/ha,2.0
same,ZEAMX preemergence herbicidal rating,"ZEAMX (Corn, Field) [1]; rate 0.0313 kg/ha",0.0
same,ZEAMX preemergence herbicidal rating,"ZEAMX (Corn, Field) [1]; rate 0.0625 kg/ha",0.0
same,ZEAMX preemergence herbicidal rating,"ZEAMX (Corn, Field) [1]; rate 0.1250 kg/ha",0.0
same,ZEAMX preemergence herbicidal rating,"ZEAMX (Corn, Field) [1]; rate 0.2500 kg/ha",0.0
same,ZEAMX preemergence herbicidal rating,"ZEAMX (Corn, Field) [1]; rate 0.5000 kg/ha",0.0
same,ZEAMX herbicidal rating,"ZEAMX (Corn, Field) [2]; rate 0.0157 kg/ha",3.0
same,ZEAMX herbicidal rating,"ZEAMX (Corn, Field) [2]; rate 0.0313 kg/ha",3.0
same,ZEAMX herbicidal rating,"ZEAMX (Corn, Field) [2]; rate 0.0625 kg/ha",3.0
same,ZEAMX herbicidal rating,"ZEAMX (Corn, Field) [2]; rate 0.1250 kg/ha",3.5
same,ZEAMX herbicidal rating,"ZEAMX (Corn, Field) [2]; rate 0.2500 kg/ha",3.5
same,ZEAMX herbicidal rating,"ZEAMX (Corn, Field) [2]; rate 0.5000 kg/ha",4.0
same,CHEAL preemergence herbicidal rating,[3]; rate 0.0313 kg/ha,7.0
same,CHEAL preemergence herbicidal rating,[3]; rate 0.2500 kg/ha,9.0
same,CHEAL preemergence herbicidal rating,[3]; rate 0.5000 kg/ha,9.0
same,ECHCG preemergence herbicidal rating,ECHCG (Barnyardgrass) [4]; rate 0.0313 kg/ha,0.0
same,ECHCG preemergence herbicidal rating,ECHCG (Barnyardgrass) [4]; rate 0.0625 kg/ha,0.0
same,ECHCG preemergence herbicidal rating,ECHCG (Barnyardgrass) [4]; rate 0.1250 kg/ha,4.0
same,ECHCG preemergence herbicidal rating,ECHCG (Barnyardgrass) [4]; rate 0.2500 kg/ha,0.0
same,ECHCG preemergence herbicidal rating,ECHCG (Barnyardgrass) [4]; rate 0.5000 kg/ha,8.0
same,ECHCG herbicidal rating,ECHCG (Barnyardgrass) [5]; rate 0.0157 kg/ha,0.0
same,ECHCG herbicidal rating,ECHCG (Barnyardgrass) [5]; rate 0.0313 kg/ha,0.0
same,ECHCG herbicidal rating,ECHCG (Barnyardgrass) [5]; rate 0.0625 kg/ha,0.0
same,ECHCG herbicidal rating,ECHCG (Barnyardgrass) [5]; rate 0.1250 kg/ha,0.0
same,ECHCG herbicidal rating,ECHCG (Barnyardgrass) [5]; rate 0.2500 kg/ha,0.0
same,ECHCG herbicidal rating,ECHCG (Barnyardgrass) [5]; rate 0.5000 kg/ha,0.0
same,Herbicidal rating CYPIR,CYPIR (Rice Flatsedge); rate 0.0313 kg/ha,0.0
same,Herbicidal rating CYPIR,CYPIR (Rice Flatsedge); rate 0.0625 kg/ha,0.0
same,Herbicidal rating CYPIR,CYPIR (Rice Flatsedge); rate 0.1250 kg/ha,0.0
same,Herbicidal rating CYPIR,CYPIR (Rice Flatsedge); rate 0.2500 kg/ha,1.0
same,Herbicidal rating CYPIR,CYPIR (Rice Flatsedge); rate 0.5000 kg/ha,4.0
same,TRZAWR preemergence herbicidal rating,[6]; rate 0.0313 kg/ha,0.0
same,TRZAWR preemergence herbicidal rating,[6]; rate 0.0625 kg/ha,0.0
same,TRZAWR preemergence herbicidal rating,[6]; rate 0.1250 kg/ha,0.0
same,TRZAWR preemergence herbicidal rating,[6]; rate 0.2500 kg/ha,0.0
same,TRZAWR preemergence herbicidal rating,[6]; rate 0.5000 kg/ha,0.0
same,GLXMAW preemergence herbicidal rating,[7]; rate 0.0313 kg/ha,0.0
same,GLXMAW preemergence herbicidal rating,[7]; rate 0.0625 kg/ha,0.0
same,GLXMAW preemergence herbicidal rating,[7]; rate 0.1250 kg/ha,0.0
same,GLXMAW preemergence herbicidal rating,[7]; rate 0.2500 kg/ha,0.0
same,GLXMAW preemergence herbicidal rating,[7]; rate 0.5000 kg/ha,1.0
same,ABUTH herbicidal rating,ABUTH (Velvetleaf) [8]; rate 0.0157 kg/ha,0.0
same,ABUTH herbicidal rating,ABUTH (Velvetleaf) [8]; rate 0.0313 kg/ha,4.0
same,ABUTH herbicidal rating,ABUTH (Velvetleaf) [8]; rate 0.0625 kg/ha,9.0
same,ABUTH herbicidal rating,ABUTH (Velvetleaf) [8]; rate 0.1250 kg/ha,9.0
same,ABUTH herbicidal rating,ABUTH (Velvetleaf) [8]; rate 0.2500 kg/ha,9.0
same,ABUTH herbicidal rating,ABUTH (Velvetleaf) [8]; rate 0.5000 kg/ha,9.0
same,ABUTH preemergence herbicidal rating,ABUTH (Velvetleaf) [9]; rate 0.0313 kg/ha,0.0
same,ABUTH preemergence herbicidal rating,ABUTH (Velvetleaf) [9]; rate 0.0625 kg/ha,0.0
same,ABUTH preemergence herbicidal rating,ABUTH (Velvetleaf) [9]; rate 0.5000 kg/ha,4.0
same,CHEAL herbicidal rating,[10]; rate 0.0157 kg/ha,7.0
same,CHEAL herbicidal rating,[10]; rate 0.0313 kg/ha,6.0
same,CHEAL herbicidal rating,[10]; rate 0.0625 kg/ha,8.0
same,CHEAL herbicidal rating,[10]; rate 0.1250 kg/ha,9.0
same,CHEAL herbicidal rating,[10]; rate 0.2500 kg/ha,7.0
same,CHEAL herbicidal rating,[10]; rate 0.5000 kg/ha,9.0
same,Herbicidal rating CYPSE,CYPSE (Flatsedge); rate 0.0313 kg/ha,0.0
same,Herbicidal rating CYPSE,CYPSE (Flatsedge); rate 0.0625 kg/ha,0.0
same,Herbicidal rating CYPSE,CYPSE (Flatsedge); rate 0.1250 kg/ha,0.0
same,Herbicidal rating CYPSE,CYPSE (Flatsedge); rate 0.2500 kg/ha,0.0
same,Herbicidal rating CYPSE,CYPSE (Flatsedge); rate 0.5000 kg/ha,0.0
same,SETVI herbicidal rating,"SETVI (Foxtail, Green); rate 0.0157 kg/ha",0.0
same,SETVI herbicidal rating,"SETVI (Foxtail, Green); rate 0.0313 kg/ha",0.0
same,SETVI herbicidal rating,"SETVI (Foxtail, Green); rate 0.1250 kg/ha",0.0
same,SETVI herbicidal rating,"SETVI (Foxtail, Green); rate 0.2500 kg/ha",0.0
same,SETVI herbicidal rating,"SETVI (Foxtail, Green); rate 0.5000 kg/ha",0.0
same,ORYSAT herbicidal rating,"ORYSAT (Rice, Tebonnet); rate 0.0157 kg/ha",3.0
same,ORYSAT herbicidal rating,"ORYSAT (Rice, Tebonnet); rate 0.0313 kg/ha",3.0
same,ORYSAT herbicidal rating,"ORYSAT (Rice, Tebonnet); rate 0.0625 kg/ha",3.0
same,ORYSAT herbicidal rating,"ORYSAT (Rice, Tebonnet); rate 0.1250 kg/ha",3.5
same,ORYSAT herbicidal rating,"ORYSAT (Rice, Tebonnet); rate 0.2500 kg/ha",3.5
same,ORYSAT herbicidal rating,"ORYSAT (Rice, Tebonnet); rate 0.5000 kg/ha",3.0
